Data published in PMC7262662 (BioMed Research International, 2020).
Marks after values point to notes of the source that are not given here.

Assays:
FIPV = assay: Antiviral assay in cotreatment: viral RNA quantification by qPCR; type: cell-based, feline infectious peritonitis virus; details: for % log10 copy number decrement: compared to FIPV sample; for 3′UTR log10 copy number: cotreatment
Protocol: CrFK cells at a density of 1 × 10^5 were cultured in medium in 24-well plates for 24 h at 37°C. […] The culture supernatant was centrifuged at 700 g for 10 min, and the virus-containing supernatant was collected and used for virus quantification.
Viral RNA was extracted from the collected supernatant using a Viral Nucleic Acid Extraction Kit II (Geneaid, New Taipei City, Taiwan) following the protocol provided by the manufacturer. Cellular total RNA was extracted from the CrFK cell pellet using the RNeasy® Mini Kit, which includes DNase treatment (QIAGEN, Germantown, MD, USA). The concentration and purity of the extracted RNA were quantified using the Eppendorf BioSpectrometer® kinetic (Eppendorf, Hamburg, Germany). The extracted RNA was stored at -80°C until further use.
Complementary DNA (cDNA) was prepared, and viral mRNA was quantified using quantitative PCR (qPCR) employing previously described methods. The qPCR results were quantified using the absolute quantification approach, where a standard curve of a serial dilution of viral cDNA template was plotted before the quantification.

FIPV-infected cells = assay: Feline-specific magnetic bead-based multiplex immunoassay; type: cell-based; details: 20 μM
Protocol: The culture supernatant was centrifuged and used for the bead-based multiplex immunoassay, while the attached cells were trypsinised and collected for the cellular proinflammatory cytokine mRNA expression study.
Nineteen immune-related proteins including cytokines, chemokines, growth factors, and other immunologically active proteins were measured using a commercially available feline-specific magnetic bead-based multiplex immunoassay. The Feline Cytokine/Chemokine Magnetic Bead Panel Premixed (FCYTOMAG-20K-PMX; EMD Millipore, Billerica, MA, USA) was purchased and used according to the manufacturer's recommendation. Quality control samples, standards, and sets of culture sample were run on plates in duplicate. Prior to measurement, the culture samples were concentrated using Concentrator 5301 (Eppendorf, Hamburg, Germany). The plates were evaluated using MAGPIX® (Luminex, Austin, TX, USA); subsequently, the results were analysed using MILLIPLEX Analyst v.5.1 (EMD Millipore, Billerica, MA, USA).

CrFK cells = assay: Cellular uptake study by fluorescence microscopy; type: cell-based, feline; details: 20 μM, examined at 1, 3 and 6 h
Protocol: The cellular uptake of curcumin and the Cur-CS nanoparticles by CrFK cells was examined using the fluorescence method. […] The plates were incubated at 37°C in an incubator with 5% CO2 for 24 h. […] At these intervals, the cells were rinsed three times with PBS. […] The dried coverslips were mounted on a glass slide, and images were captured by an Olympus IX81 inverted fluorescence microscope (Olympus, Japan) under a 535–600 nm filter.

COc1cc(/C=C/C(=O)CC(=O)/C=C/c2ccc(O)c(OC)c2)ccc1O [Curcumin]
% log10 copy number decrement (FIPV; 48 h, 5 μM): 27.54 ± 3.28^b % | 3′UTR log10 copy number (FIPV; 48 h, 5 μM, FIPV sample 11.86 ± 0.06): 11.72 ± 0.06^d | % log10 copy number decrement (FIPV; 48 h, 10 μM): 40.50 ± 5.41^c % | 3′UTR log10 copy number (FIPV; 48 h, 10 μM, FIPV sample 11.86 ± 0.06): 11.63 ± 0.01^cd | % log10 copy number decrement (FIPV; 48 h, 20 μM): 59.46 ± 2.45^e % | % log10 copy number decrement (FIPV; 48 h, 20 μM, listed as curcumin): 59.46 ± 2.45% | 3′UTR log10 copy number (FIPV; 48 h, 20 μM, FIPV sample 11.86 ± 0.06): 11.46 ± 0.05^b | % log10 copy number decrement (FIPV; 72 h, 5 μM): 10.70 ± 5.47^b % | 3′UTR log10 copy number (FIPV; 72 h, 5 μM, FIPV sample 12.00 ± 0.03): 11.95 ± 0.01^cd | % log10 copy number decrement (FIPV; 72 h, 10 μM): 26.92 ± 5.93^cd % | 3′UTR log10 copy number (FIPV; 72 h, 10 μM, FIPV sample 12.00 ± 0.03): 11.86 ± 0.06^abc | % log10 copy number decrement (FIPV; 72 h, 20 μM): 26.38 ± 2.75^c % | 3′UTR log10 copy number (FIPV; 72 h, 20 μM, FIPV sample 12.00 ± 0.03): 11.87 ± 0.04^abc | TNFα concentration (FIPV-infected cells; 24 h, infected cells untreated 38.13 ± 0.00): 37.40 ± 1.04^b pg/mL | IL-18 concentration (FIPV-infected cells; 24 h, infected cells untreated 60.62 ± 3.50): 47.92 ± 1.73^ab pg/mL | KC concentration (FIPV-infected cells; 24 h, infected cells untreated 80.76 ± 3.71): 58.52 ± 15.92^bc pg/mL | SDF-1 concentration (FIPV-infected cells; 24 h, infected cells untreated 161.3 ± 7.1): 163.5 ± 3.1^b pg/mL | PDGF-BB concentration (FIPV-infected cells; 24 h, infected cells untreated 445.6 ± 18.7): 446.0 ± 0.0^b pg/mL | RANTES concentration (FIPV-infected cells; 24 h, infected cells untreated 868.6 ± 62.1): 746.7 ± 18.3^c pg/mL | MCP-1 concentration (FIPV-infected cells; 24 h, infected cells untreated 934.8 ± 0.0): 934.8 ± 0.0^c pg/mL | IL-8 concentration (FIPV-infected cells; 24 h, infected cells untreated 2078.0 ± 138.6): 1509.5 ± 16.3^c pg/mL | TNFα concentration (FIPV-infected cells; 48 h, infected cells untreated 46.83 ± 6.11): 35.18 ± 2.09^a pg/mL | IL-6 concentration (FIPV-infected cells; 48 h, infected cells untreated 108.06 ± 4.85): 54.75 ± 6.34^∗ pg/mL | SDF-1 concentration (FIPV-infected cells; 48 h, infected cells untreated 158.2 ± 0.9): 84.2 ± 2.9^a pg/mL | KC concentration (FIPV-infected cells; 48 h, infected cells untreated 266.1 ± 35.2): 186.4 ± 14.2^c pg/mL | PDGF-BB concentration (FIPV-infected cells; 48 h, infected cells untreated 440.5 ± 43.1): 354.2 ± 30.0^a pg/mL | MCP-1 concentration (FIPV-infected cells; 48 h, infected cells untreated 934.2 ± 57.9): 735.5 ± 34.2^a pg/mL | IL-8 concentration (FIPV-infected cells; 48 h, infected cells untreated 1660.0 ± 196.6): 1074.5 ± 9.2^b pg/mL | RANTES concentration (FIPV-infected cells; 48 h, infected cells untreated 2317.0 ± 355.0): 618.6 ± 70.8^b pg/mL | Cellular uptake: time at which green fluorescence was first observed (CrFK cells): 3 h
